# Reference: patent US10420824B2, “Induced activation in dendritic cells” (BAYLOR COLLEGE OF MEDICINE, priority 2003, dated 2019)
# How the values were obtained:
# CD40 = assay: Flow cytometry of CD40 on D2SC/1 DC line after CD40L and inhibitors; assay type: cell-based
# Protocol: FIG. 8A-FIG. 8C show CD40L downregulates and reduces the signaling capacity of CD40. FIG. 8A provides two graphs showing endocytosis inhibition reduces CD40 downregulation. D2SC/1 cell lines were incubated with 250 μM cytochalasin B for 1 hour followed by a 30 min CD40L treatment. D2SC/1 cells were also treated with cytochalasin B, the DMSO solvent control, and CD40L alone. K^+-depletion of the D2SC/1 cell line was also carried out prior to CD40 surface staining and flow cytometry analysis. Only viable cells were gated for analysis. FIG. 8B provides flow cytometry analysis showing inhibition of lysosomal degradation enhances intracellular CD40 levels. D2SC/1 cell lines were incubated with 0.5 μM bafilomycin A inhibitor for 1 hour followed by intracellular staining for CD40 (Total CD40). Total CD40 is compared to surface CD40 fluorescence. FIG. 8C is a graph showing inhibition of endocytosis intensifies the CD40 activation signal in DC Lines. Staining and analysis of surface H-2K^d.
# To initially investigate the potential downregulation of surface CD40 upon ligand engagement, flow cytometric analysis of DC surface expression of CD40 was monitored in the presence and absence of CD40L.
# [1] = system: syngeneic lymph node (LN)-derived cells; assay: Mixed lymphocyte reaction, 3H-thymidine T cell proliferation with mitomycin C-treated D2SC/1 DCs; assay type: cell-based; settings: purified CD8+ T cells from LN tissue (>95%), no CD4+ help
# Protocol: The initial approach to the determination of the T cell stimulation capacity of iCD40 DCs involved the co-incubation of mitomycin C-treated D2SC/1 DCs with syngeneic lymph node (LN)-derived cells in vitro. This mixed lymphocyte reaction (MLR) assay measured the ability of iCD40 DCs to induce a syngeneic T cell proliferative response to bovine serum-derived xenogeneic antigens (FIG. 3C). […] In order to investigate whether this T cell activation effect was dependent on CD4+ T cell help, CD8+ T cells from LN tissue (>95%) were purified and the ^3H-thymidine-based proliferation assay was repeated (FIG. 3C). […] Furthermore, the CD4+-depletion data inferred that the iCD40 receptor may be capable of substituting for CD4+ T cell help in DC-based vaccination strategies.
# IL-12 = assay: Intracellular cytokine staining of IL-12 in BMDCs; assay type: cell-based, C57BL/6 mice; settings: decreased thereafter
# From the text: A viral region E1 and E3-deleted, replication-deficient type 5 adenoviral vector was engineered to express both iCD40 and EGFP under the control of the CMV early/immediate promoter/enhancer. Ad-iCD40-GFP successfully transduced and expressed the iCD40 transgene, as well as the EGFP marker, in purified BMDCs (FIG. 5A,B). […] The effects of Ad-iCD40-GFP on BMDCs were studied by using intracellular cytokine staining to evaluate DC expression of the TH1-polarizing cytokine, IL-12. The results confirmed numerous previous reports that an empty adenoviral vector can contribute to background fluorescence readings by stimulating the production of low levels of this cytokine (FIG. 5D) (Korst 2002).
# RelB = assay: Nuclear translocation of RelB by western blot of nuclear lysates of iCD40 D2SC/1 DCs, with pulse-chase; assay type: cell-based; settings: pulse-chase experiments
# From the text: FIG. 2A-FIG. 2F show inducible CD40 initiates a potent NFkB signal in DCs. FIG. 2A is a photograph of an anti-HA Western Blot Analysis of iCD40 D2SC/1 DC Clones. FIG. 2B is a photograph of anti-HA Immunofluorescence of D2SC/1.Hi (lt) and D2SC/1 (rt) FIG. 2C is a graph of results of an NFκB-SEAP Reporter Assay. FIG. 2D is a graph of results and a photograph that show induction of RelB and Sp1 in D2SC/1.Hi by AP20187. FIG. 2E is a graph of results and a photograph of results of assays where maximum concentrations of each agent (based on titrations) were co-incubated with iCD40 D2SC/1 for 24 hrs and nuclear lysates were analyzed by western blot.
# Reporter assays were carried out in these cell lines to determine whether iCD40 could also induce NFκB activation in DCs. […] Several studies have identified that the RelB subunit of NFκB plays a significant role in the DC maturation program (Pettit 1997; Martin 2003). […] Therefore, as a surrogate marker for DC activation, the nuclear translocation of RelB was analyzed by western blot in iCD40 DCs exposed to log dilutions of AP20187 (FIG. 2D).
# DC activation potency of iCD40 was compared with other traditional DC maturation stimuli, such as LPS, TNFα, anti-CD40 mAb, and CD40L. […]
# iCD40-IICD40 DC lines = assay: iCD40-IICD40 double-stable D2SC/1 DC lines, western blot and H-2K^d surface expression; assay type: cell-based; settings: IICD40-expressing lines vs empty vector control
# From the text: FIG. 9A-FIG. 9D show iCD40 circumvents negative feedback inhibition by the Type II CD40 (IICD40) isoform. FIG. 9A is a schematic of Type I, II, and iCD40. […] The type II CD40 isoform was rt-PCR amplified from purified BMDCs, subcloned into a pEF-1α-driven myc-tagged ZeoR vector, and transfected into iCD40-expressing D2SC/1 cells. Double clonal stable lines were generated by G418/zeocin selection and limiting dilution. Resulting lines were screened for IICD40 expression by anti-myc western blot and analyzed for iCD40 expression by anti-HA western blots. FIG. 9C is a graph showing that Type II CD40 down-regulates surface expression of Type I CD40 in DC Lines. Empty vector control and IICD40-expressing D2SC/1 lines were analyzed for their surface expression of CD40 by flow cytometry. Only viable cells were gated for analysis. FIG. 9D provides two graphs showing the Type II CD40 isoform downmodulates Type I CD40 signaling, but not iCD40 signaling. iCD40-IICD40-expressing D2SC/1 cell lines were cultured in the presence of increasing concentrations of CD40L and the AP20187 drug followed by surface staining and flow analysis of H-2K^d. […]
# To expand upon these findings, the effects of CD40L and AP20187 titrations on each of the IICD40 lines were analyzed based on the hypothesis that IICD40-mediated type I CD40 downregulation should blunt the DC response to CD40L but not to AP20187 (FIG. 9D).
molecule,measurement,setting,value
C=C1[C@@H](C)[C@H]2[C@H](Cc3ccccc3)NC(=O)[C@]23OC(=O)/C=C/[C@H](O)CCC[C@@H](C)C/C=C/[C@H]3[C@@H]1O [cytocholasin B],sensitivity of CD40L-induced CD40 downregulation to inhibitor,CD40; endocytosis inhibitor,sensitive
balifomycin A1,total CD40 levels (intracellular staining),CD40; endosomal H^+ATPase inhibitor,enhanced total CD40 levels
lipopolysaccharide [LPS],CD8+ T cell proliferation,[1],failed to circumvent the requirement for CD4+ T cell-derived helper signals
same,time of peak IL-12p70/p40 synthesis,IL-12,8 h
TNFα,duration of RelB induction,RelB,24 h
CD40L: CD40 ligand (protein) MIETYNQTSPRSAATGLPISMKIFMYLLTVFLITQMIGSALFAVYLHRRLDKIEDERNLHEDFVFMKTIQRCNTGERSLSLLNCEEIKSQFEGFVKDIMLNKEETKKENSFEMQKGDQNPQIAAHVISEASSKTTSVLQWAEKGYYTMSNNLVTLENGKQLTVKRQGLYYIYAQVTFCSNREASSQAPFIASLCLKSPGRFERILLRAANTHSSAKPCGQQSIHLGGVFELQPGASVFVNVTDPSQVSHGTGFTSFGLLKL,MHC class I H-2K^d surface expression dose-response,iCD40-IICD40 DC lines,elevated amounts of CD40L were required to initiate signaling through the CD40 axis
same,surface CD40 mean fluorescence intensity,"CD40; D2SC/1 DC line, rapid kinetics",promptly reduced the mean fluorescence intensity of CD40
same,time of peak IL-12p70/p40 synthesis,IL-12,8 h
